# Results reported in patent US20200339691A1, “PROTEINACEOUS MOLECULES AND USES THEREFOR” (priority 2018, published 2020).
# Where a SMILES comes first, the peptide text is derived from it. The star is where a group is joined. Myristoyl = CCCCCCCCCCCCCC(=O)*
# What was measured:
# [1] = system: MDA-MB-231 cells; format: cell-based, human; conditions: for COI (Cell Count) / COI, Live Single Cells (Cell Count) / COI, Single (Cell Count) / Total Cell Count: 50 μM peptide, 48 hours, n = 1; for killing of total MDA-MB-231 cells: not only the CSCs;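 on COI, Live Single Cells (Cell Count): live means Hoechst-negative events among single cells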
# Description: (§1) Non-adherent cells were removed during the washing steps.
# [2] = system: CD44^hiCD24^lo CSCs in MDA-MB-231 cells; assay: FACS analysis of CD44^hiCD24^lo cancer stem cells in MDA-MB-231 cells treated with P1 analogues; format: cell-based, human; conditions: for Inhibition of CSCs (%) Repeat 1 / Inhibition of CSCs (%) Repeat 2 / Inhibition of CSCs (%) Repeat 3 / CD44^hiCD24^lo CSCs (%) / COI, Live Single CD44^hiCD24^lo CSCs (Cell Count) / Average Inhibition of CSCs (%) / CD44^hiCD24^lo CSCs (%) Repeat 1 / CD44^hiCD24^lo CSCs (%) Repeat 2 / CD44^hiCD24^lo CSCs (%) Repeat 3: 50 μM peptide, 48 hours; for CD44^hiCD24^lo CSCs (%) / COI, Live Single CD44^hiCD24^lo CSCs (Cell Count): n = 1; for Average Inhibition of CSCs (%) / CD44^hiCD24^lo CSCs (%) Repeat 1 / CD44^hiCD24^lo CSCs (%) Repeat 2 / CD44^hiCD24^lo CSCs (%) Repeat 3: n = 3
# Method: Analogues of P1 (Table 6) were designed and synthesized in accordance with the procedure of Example 5. The ability of these analogues to inhibit cancer stem cells was determined using FACS analysis on MDA-MB-231 cells, which constitutively contain approximately 90% CD44^hiCD24^lo cancer stem cells, treated with the peptides.
# as §1
# [3] = system: induced MCF7 cells; assay: FACS CSC inhibition in induced MCF7 cells; format: cell-based, human; conditions: induced MCF7 cells (PMA/TGF-β), 50 μM peptide, 48 hours
# Method: (§2) P1 Analogues were synthesized in accordance with the procedure of Example 5. 4×10^4 MDA-MB-231 cells or 1×10^4 induced or non-induced MCF7 cells were seeded in a 12 well plate with 1 mL complete media overnight. Induced MCF7 cells were prepared by stimulating cells with PMA/TGF-β and incubating for 12 hours. Cells were treated with 50 μM test peptide (dissolved in water) for 48 hours. Cells were then washed twice with 1 mL PBS and harvested by trypsinisation. Non-adherent cells were removed during the washing steps. Adherent cells were collected, and were subsequently stained with anti-human CD44, CD24 and Hoechst 33342 antibodies on ice for 30 mins. FACS was performed on BD FACS LSRII to measure the percentage of CD44^hiCD24^lo CSCs by dividing CD44^hiCD24^lo events by total live cell counts (Hoechst negative population) (as described in Fillmore and Kuperwasser (2007) Breast Cancer Res, 9: 303). The percentage of viable cells was calculated by dividing total live cell events by total single cells as described previously (Siemann and Keng (1986), Cancer Res, 46: 3556-3559).
# [4] = system: MCF7 cells; conditions: MCF7 cells, 50 μM peptide, 48 hours
# Method: as §2
# [5] = system: CD44^hiCD24^lo CSCs in MCF7 cells; assay: FACS analysis of CD44^hiCD24^lo CSCs in MCF7 cells; format: cell-based, human; conditions: 50 μM peptide, 48 hours
# Method: as §2
compound,measurement,setting,value
"CCCCCCCCCCCCCC(=O)N[C@H](C(=O)N[C@@H](Cc1ccccc1)C(=O)N[C@H](C(=O)N[C@@H](Cc1ccccc1)C(=O)N[C@@H](CCCNC(=N)N)C(=O)N[C@@H](CC(C)C)C(=O)N[C@@H](CCCNC(=N)N)C(=O)N[C@@H](C)C(=O)NCC(=O)N[C@@H](CCCNC(=N)N)C(=O)N[C@@H](CCSC)C(=O)N[C@@H](CCSC)C(=O)N[C@@H](CC(=O)O)C(=O)N[C@H](C(=O)N[C@@H](CCCCN)C(=O)N[C@@H](CCCCN)C(N)=O)C(C)C)[C@@H](C)CC)[C@@H](C)O [Peptide 2815309, Myristoyl-TFIFRLRAGRMMDVKK-NH2] (Myristoyl-TFIFRLRAGRMMDVKK-NH2)",COI (Cell Count),[1],74
same,"COI, Live Single Cells (Cell Count)",[1],1
same,"COI, Single (Cell Count)",[1],71
same,Total Cell Count,[1],4158
same,killing of total MDA-MB-231 cells,[1],killed the majority of the total MDA-MB-231 cells
same,Inhibition of CSCs (%) Repeat 1,[2],100.00%
same,Inhibition of CSCs (%) Repeat 2,[2],100.00%
same,Inhibition of CSCs (%) Repeat 3,[2],100.00%
same,CD44^hiCD24^lo CSCs (%),[2],0.00%
same,"COI, Live Single CD44^hiCD24^lo CSCs (Cell Count)",[2],1
same,Average Inhibition of CSCs (%),[2],100.00%
same,CD44^hiCD24^lo CSCs (%) Repeat 1,[2],0.00%
same,CD44^hiCD24^lo CSCs (%) Repeat 2,[2],0.00%
same,CD44^hiCD24^lo CSCs (%) Repeat 3,[2],0.00%
same,ability to inhibit cancer stem cells (CD44^hiCD24^lo CSCs),[2]; in words,retained the ability to inhibit cancer stem cells
same,CSC inhibition (%),[3],52.46%
same,COI Count,[4],5425
same,COI/Single Cell Count,[4],4124
same,COI/Single Cells/Live Count,[4],4000
same,Total Count,[4],10000
same,CD44^hiCD24^lo CSC %,[5],3.35%
same,COI/Single Cells/Live/CD44^hiCD24^lo CSCs Count,[5],134
"CCCCCCCCCCCCCC(=O)N[C@H](C(=O)N[C@@H](Cc1ccccc1)C(=O)N[C@H](C(=O)N[C@@H](Cc1ccccc1)C(=O)N[C@@H](CCCNC(=N)N)C(=O)N[C@@H](CC(C)C)C(=O)N[C@@H](CCCNC(=N)N)C(=O)N[C@@H](CCCCN)C(=O)NCC(=O)N[C@@H](CCCNC(=N)N)C(=O)N[C@@H](CCSC)C(=O)N[C@@H](CCSC)C(=O)N[C@@H](C)C(=O)N[C@H](C(=O)N[C@@H](CCCCN)C(=O)N[C@@H](CCCCN)C(N)=O)C(C)C)[C@@H](C)CC)[C@@H](C)O [Peptide 2815314, Myristoyl-TFIFRLRKGRMMAVKK-NH2] (Myristoyl-TFIFRLRKGRMMAVKK-NH2)",COI (Cell Count),[1],10
same,"COI, Live Single Cells (Cell Count)",[1],2
same,"COI, Single (Cell Count)",[1],9
same,Total Cell Count,[1],5611
same,killing of total MDA-MB-231 cells,[1],killed the majority of the total MDA-MB-231 cells
same,Inhibition of CSCs (%) Repeat 1,[2],100.00%
same,Inhibition of CSCs (%) Repeat 2,[2],100.00%
same,Inhibition of CSCs (%) Repeat 3,[2],100.00%
same,CD44^hiCD24^lo CSCs (%),[2],0.00%
same,"COI, Live Single CD44^hiCD24^lo CSCs (Cell Count)",[2],0
same,Average Inhibition of CSCs (%),[2],100.00%
same,CD44^hiCD24^lo CSCs (%) Repeat 1,[2],0.00%
same,CD44^hiCD24^lo CSCs (%) Repeat 2,[2],0.00%
same,CD44^hiCD24^lo CSCs (%) Repeat 3,[2],0.00%
same,CSC inhibition (%),[3],61.00%
same,COI Count,[4],6564
same,COI/Single Cell Count,[4],5443
same,COI/Single Cells/Live Count,[4],5276
same,Total Count,[4],10000
same,CD44^hiCD24^lo CSC %,[5],2.75%
same,COI/Single Cells/Live/CD44^hiCD24^lo CSCs Count,[5],145
"CCCCCCCCCCCCCC(=O)N[C@H](C(=O)N[C@@H](Cc1ccccc1)C(=O)N[C@H](C(=O)N[C@@H](Cc1ccccc1)C(=O)N[C@@H](CCCNC(=N)N)C(=O)N[C@@H](CC(C)C)C(=O)N[C@@H](CCCNC(=N)N)C(=O)N[C@@H](CCCCN)C(=O)NCC(=O)N[C@@H](CCCNC(=N)N)C(=O)N[C@@H](C)C(=O)N[C@@H](CCSC)C(=O)N[C@@H](CC(=O)O)C(=O)N[C@H](C(=O)N[C@@H](CCCCN)C(=O)N[C@@H](CCCCN)C(N)=O)C(C)C)[C@@H](C)CC)[C@@H](C)O [Peptide 2815312, Myristoyl-TFIFRLRKGRAMDVKK-NH2] (Myristoyl-TFIFRLRKGRAMDVKK-NH2)",COI (Cell Count),[1],9
same,"COI, Live Single Cells (Cell Count)",[1],6
same,"COI, Single (Cell Count)",[1],7
same,Total Cell Count,[1],2993
same,killing of total MDA-MB-231 cells,[1],killed the majority of the total MDA-MB-231 cells
same,Inhibition of CSCs (%) Repeat 1,[2],100.00%
same,Inhibition of CSCs (%) Repeat 2,[2],100.00%
same,Inhibition of CSCs (%) Repeat 3,[2],100.00%
same,CD44^hiCD24^lo CSCs (%),[2],0.00%
same,"COI, Live Single CD44^hiCD24^lo CSCs (Cell Count)",[2],0
same,Average Inhibition of CSCs (%),[2],100.00%
same,CD44^hiCD24^lo CSCs (%) Repeat 1,[2],0.00%
same,CD44^hiCD24^lo CSCs (%) Repeat 2,[2],0.00%
same,CD44^hiCD24^lo CSCs (%) Repeat 3,[2],0.00%
same,CSC inhibition (%),[3],53.47%
same,COI Count,[4],5333
same,COI/Single Cell Count,[4],4517
same,COI/Single Cells/Live Count,[4],4331
same,Total Count,[4],10000
same,CD44^hiCD24^lo CSC %,[5],3.28%
same,COI/Single Cells/Live/CD44^hiCD24^lo CSCs Count,[5],142
"CCCCCCCCCCCCCC(=O)N[C@@H](CC(C)C)C(=O)N[C@H](C(=O)N[C@@H](Cc1ccccc1)C(=O)N[C@H](C(=O)N[C@@H](Cc1ccccc1)C(=O)N[C@@H](CCCNC(=N)N)C(=O)N[C@@H](CC(C)C)C(=O)N[C@@H](CCCNC(=N)N)C(=O)N[C@@H](CCCCN)C(=O)NCC(=O)N[C@@H](CCCNC(=N)N)C(=O)N[C@@H](CCSC)C(=O)N[C@@H](CCSC)C(=O)N[C@@H](CC(=O)O)C(=O)N[C@@H](CCCCN)C(=O)N[C@@H](CCCCN)C(=O)N[C@@H](CCCCN)C(N)=O)[C@@H](C)CC)[C@@H](C)O [Peptide 2853839, Myristoyl-LTFIFRLRKGRMMDKKK-NH2] (Myristoyl-LTFIFRLRKGRMMDKKK-NH2)",COI (Cell Count),[1],12
same,"COI, Live Single Cells (Cell Count)",[1],2
same,"COI, Single (Cell Count)",[1],10
same,Total Cell Count,[1],619
same,killing of total MDA-MB-231 cells,[1],killed the majority of the total MDA-MB-231 cells
same,Inhibition of CSCs (%) Repeat 1,[2],100.00%
same,Inhibition of CSCs (%) Repeat 2,[2],100.00%
same,Inhibition of CSCs (%) Repeat 3,[2],100.00%
same,CD44^hiCD24^lo CSCs (%),[2],0.00%
same,"COI, Live Single CD44^hiCD24^lo CSCs (Cell Count)",[2],0
same,Average Inhibition of CSCs (%),[2],100.00%
same,CD44^hiCD24^lo CSCs (%) Repeat 1,[2],0.00%
same,CD44^hiCD24^lo CSCs (%) Repeat 2,[2],0.00%
same,CD44^hiCD24^lo CSCs (%) Repeat 3,[2],0.00%
same,CSC inhibition (%),[3],83.87%
same,COI Count,[4],3128
same,COI/Single Cell Count,[4],2294
same,COI/Single Cells/Live Count,[4],2200
same,Total Count,[4],10000
same,CD44^hiCD24^lo CSC %,[5],1.14%
same,COI/Single Cells/Live/CD44^hiCD24^lo CSCs Count,[5],25
"CCCCCCCCCCCCCC(=O)N[C@@H](CC(C)C)C(=O)N[C@@H](CCCCN)C(=O)N[C@@H](Cc1ccccc1)C(=O)N[C@H](C(=O)N[C@@H](Cc1ccccc1)C(=O)N[C@@H](CCCNC(=N)N)C(=O)N[C@@H](CC(C)C)C(=O)N[C@@H](CCCNC(=N)N)C(=O)N[C@@H](CCCCN)C(=O)NCC(=O)N[C@@H](CCCNC(=N)N)C(=O)N[C@@H](CCSC)C(=O)N[C@@H](CCSC)C(=O)N[C@@H](CC(=O)O)C(=O)N[C@H](C(=O)N[C@@H](CCCCN)C(=O)N[C@@H](CCCCN)C(N)=O)C(C)C)[C@@H](C)CC [Peptide 2853805, Myristoyl-LKFIFRLRKGRMMDVKK-NH2] (Myristoyl-LKFIFRLRKGRMMDVKK-NH2)",COI (Cell Count),[1],52
same,"COI, Live Single Cells (Cell Count)",[1],1
same,"COI, Single (Cell Count)",[1],32
same,Total Cell Count,[1],3221
same,killing of total MDA-MB-231 cells,[1],killed the majority of the total MDA-MB-231 cells
same,Inhibition of CSCs (%) Repeat 1,[2],100.00%
same,Inhibition of CSCs (%) Repeat 2,[2],100.00%
same,Inhibition of CSCs (%) Repeat 3,[2],100.00%
same,CD44^hiCD24^lo CSCs (%),[2],0.00%
same,"COI, Live Single CD44^hiCD24^lo CSCs (Cell Count)",[2],0
same,Average Inhibition of CSCs (%),[2],100.00%
same,CD44^hiCD24^lo CSCs (%) Repeat 1,[2],0.00%
same,CD44^hiCD24^lo CSCs (%) Repeat 2,[2],0.00%
same,CD44^hiCD24^lo CSCs (%) Repeat 3,[2],0.00%
same,CSC inhibition (%),[3],64.52%
same,COI Count,[4],5356
same,COI/Single Cell Count,[4],4637
same,COI/Single Cells/Live Count,[4],4320
same,Total Count,[4],10000
same,CD44^hiCD24^lo CSC %,[5],2.50%
same,COI/Single Cells/Live/CD44^hiCD24^lo CSCs Count,[5],108
